Laboratory results from patent US10246456B2, “IRAK4 inhibiting agents” (BIOGEN MA INC., priority 2014, dated 2019).

What follows are compounds tested against IRAK4 (Homo sapiens (Human), UniProt Q9NWZ3) (assay: IRAK-4 AlphaScreen biochemical kinase assay). Conditions: 1 nM IRAK4, 1 mM ATP, 3.5 h at RT.
Chain of IRAK4 (Q9NWZ3 whole entry, species assumed): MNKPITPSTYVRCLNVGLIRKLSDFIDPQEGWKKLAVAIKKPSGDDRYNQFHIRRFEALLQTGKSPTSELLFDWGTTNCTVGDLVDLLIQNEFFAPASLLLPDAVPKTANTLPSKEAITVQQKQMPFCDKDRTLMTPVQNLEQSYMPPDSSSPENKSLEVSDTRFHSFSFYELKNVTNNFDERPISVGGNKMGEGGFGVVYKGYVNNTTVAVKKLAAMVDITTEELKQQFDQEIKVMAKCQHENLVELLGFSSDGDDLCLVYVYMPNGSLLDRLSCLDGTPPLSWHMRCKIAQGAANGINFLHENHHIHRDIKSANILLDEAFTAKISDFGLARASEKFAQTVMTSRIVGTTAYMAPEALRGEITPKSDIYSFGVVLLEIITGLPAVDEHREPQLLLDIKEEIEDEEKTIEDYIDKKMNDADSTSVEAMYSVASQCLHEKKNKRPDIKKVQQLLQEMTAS
Summary of the method: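 AlphaScreen read-out: streptavidin beads bind the biotinylated peptide and protein A beads bind the anti-phosphothreonine antibody, so energy transfer reports phosphorylation of the peptide. The kinase is human IRAK-4.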
For CC(N)c1cncc(-c2ccc3cnn(-c4cccc(C(F)(F)F)n4)c3c2)c1 (stereo not shown) [Example 90, 1-(5-(1-(6-(trifluoromethyl)pyridin-2-yl)-1H-indazol-6-yl)pyridin-3-yl)ethanamine], the IC50 was < 0.1 µM. In the case of CC(N)c1cccc(-c2ccc3cnn(-c4cccc(C(F)(F)F)n4)c3c2)n1 (single isomer, unassigned; isomer b) [Example 84, 1-(6-(1-(6-(trifluoromethyl)pyridin-2-yl)-1H-indazol-6-yl)pyridin-2-yl)ethanamine-isomer B], the IC50 is reported as < 0.1 µM. For C[C@H](N)c1cccc(-c2cc(-c3ccn(C(F)F)n3)c3cnn(-c4cccc(CO)n4)c3c2)n1 [Example 386, (S)-(6-(6-(6-(1-aminoethyl)pyridin-2-yl)-4-(1-(difluoromethyl)-1H-pyrazol-3-yl)-1H-indazol-1-yl)pyridin-2-yl)methanol], the IC50 was < 0.1 µM. For N#Cc1cncc(-c2ccc3cnn(-c4cccc(C(F)(F)F)n4)c3c2)n1 [Example 92, 6-(1-(6-(trifluoromethyl)pyridin-2-yl)-1H-indazol-6-yl)pyrazine-2-carbonitrile], the IC50 was 1 to 10 µM. In the case of NCc1cc(N)cc(-c2ccc3cnn(-c4cccc(C(F)(F)F)n4)c3c2)n1 [Example 80, 2-(aminomethyl)-6-(1-(6-(trifluoromethyl)pyridin-2-yl)-1H-indazol-6-yl)pyridin-4-amine], the IC50 is reported as < 0.1 µM. With CC(N)c1cccc(-c2cc(F)c3cnn(-c4cccc(C(F)(F)F)n4)c3c2)n1 (stereo not shown) [Example 240, 1-(6-(4-fluoro-1-(6-(trifluoromethyl)pyridin-2-yl)-1H-indazol-6-yl)pyridin-2-yl)ethanamine] the IC50 was < 0.1 µM. COCCOc1cc(-c2cccc([C@H](N)C(F)CCO)n2)cc2c1cnn2-c1cccc(CO)n1 (stereo partly drawn) [Example 431, (4S)-4-amino-3-fluoro-4-(6-(1-(6-(hydroxymethyl)pyridin-2-yl)-4-(2-methoxyethoxy)-1H-indazol-6-yl)pyridin-2-yl)butan-1-ol] gave an IC50 of 0.1 to 1 µM. In the case of Cc1cccc(-c2ncc3ccc(-c4cncc(N)c4)cn23)n1 [Example 41, 5-(3-(6-methylpyridin-2-yl)imidazo[1,5-a]pyridin-6-yl)pyridin-3-amine], the IC50 is reported as < 0.1 µM. For Cc1cccc(-n2ncc3ccc(-c4csc(CO)n4)cc32)n1 [Example 320, (4-(1-(6-methylpyridin-2-yl)-1H-indazol-6-yl)thiazol-2-yl)methanol], the IC50 was 0.1 to 1 µM. Cc1ccc(Cl)c(-n2ncc3ccc(-c4cncc(N)c4)cc32)n1 [Example 38, 5-(1-(3-chloro-6-methylpyridin-2-yl)-1H-indazol-6-yl)pyridin-3-amine] gave an IC50 of 1 to 10 µM. With Cc1cccc(-n2ncc3c(CO)cc(-c4cccc(C(C)N)n4)cc32)n1 (stereo not shown) [Example 114, (6-(6-(1-aminoethyl)pyridin-2-yl)-1-(6-methylpyridin-2-yl)-1H-indazol-4-yl)methanol] the IC50 was < 0.1 µM. COCc1cccc(-n2ncc3ccc(-c4cccc(C(C)N)n4)cc32)n1 (stereo not shown) [Example 279, 1-(6-(1-(6-(methoxymethyl)pyridin-2-yl)-1H-indazol-6-yl)pyridin-2-yl)ethanamine] was tested, and the IC50 was < 0.1 µM. C[C@H](N)c1cccc(-c2cc(-c3cc(C(F)(F)F)[nH]n3)c3cnn(-c4cccc(CO)n4)c3c2)n1 [Example 383, (S)-(6-(6-(6-(1-aminoethyl)pyridin-2-yl)-4-(5-(trifluoromethyl)-1H-pyrazol-3-yl)-1H-indazol-1-yl)pyridin-2-yl)methanol] was tested, and the IC50 was < 0.1 µM. For Cc1cccc(-n2ncc3ccc(-c4cccc([C@@H](C)N)n4)cc32)n1 [Example 141, (R)-1-(6-(1-(6-methylpyridin-2-yl)-1H-indazol-6-yl)pyridin-2-yl)ethanamine], the IC50 was < 0.1 µM. C[C@H](N)c1cccc(-c2cc(-c3ccncn3)c3cnn(-c4cccc(CO)n4)c3c2)n1 [Example 393, (S)-(6-(6-(6-(1-aminoethyl)pyridin-2-yl)-4-(pyrimidin-4-yl)-1H-indazol-1-yl)pyridin-2-yl)methanol] was tested, and the IC50 was < 0.1 µM. In the case of CCCC[C@H](N)c1ccnc(-c2ccc3cnn(-c4cccc(CO)n4)c3c2)n1 [Example 580, (S)-(6-(6-(4-(1-aminopentyl)pyrimidin-2-yl)-1H-indazol-1-yl)pyridin-2-yl)methanol], the IC50 is reported as < 0.1 µM. For Cc1cc(C)nc(-n2ncc3ccc(-c4cccc(N)c4)cc32)c1 [Example 23, 3-(1-(4,6-dimethylpyridin-2-yl)-1H-indazol-6-yl)aniline], the IC50 was 1 to 10 µM. Work on N#Cc1cccc(-n2ncc3ccc(-c4cccc(N)c4)cc32)c1 [Example 20, 3-(6-(3-aminophenyl)-1H-indazol-1-yl)benzonitrile] yielded an IC50 of 0.1 to 1 µM. CC(=O)Nc1cc(-c2cccc(C(C)N)n2)cc2c1cnn2-c1cccc(C)n1 (stereo not shown) [Example 103, N-(6-(6-(1-aminoethyl)pyridin-2-yl)-1-(6-methylpyridin-2-yl)-1H-indazol-4-yl)acetamide] gave an IC50 of 0.1 to 1 µM. For Cc1cccc(-n2ncc3c(-c4nccs4)cc(-c4cccc(C(C)N)n4)cc32)n1 (stereo not shown) [Example 303, 1-(6-(1-(6-methylpyridin-2-yl)-4-(thiazol-2-yl)-1H-indazol-6-yl)pyridin-2-yl)ethanamine], the IC50 was < 0.1 µM. In the case of Cc1cc(-c2cc(-c3cccc([C@@H](N)CCCO)n3)cc3c2cnn3-c2cccc(CO)n2)nn1C [Example 392, (S)-4-amino-4-(6-(4-(1,5-dimethyl-1H-pyrazol-3-yl)-1-(6-(hydroxymethyl)pyridin-2-yl)-1H-indazol-6-yl)pyridin-2-yl)butan-1-ol], the IC50 is reported as < 0.1 µM. Work on N#CCNC(=O)c1cccc(-n2ncc3ccc(-c4cncc(N)c4)cc32)n1 [Example 73, 6-(6-(5-aminopyridin-3-yl)-1H-indazol-1-yl)-N-(cyanomethyl)picolinamide] yielded an IC50 of 1 to 10 µM. In the case of CC(N)c1cccc(-c2ccc3cnn(-c4cccc(CCO)n4)c3c2)n1 (stereo not shown) [Example 314, 2-(6-(6-(6-(1-aminoethyl)pyridin-2-yl)-1H-indazol-1-yl)pyridin-2-yl)ethanol], the IC50 is reported as < 0.1 µM. For COCCOc1cc(-c2cccc([C@@H](N)C(C)F)n2)cc2c1cnn2-c1cccc(CO)n1 (stereo partly drawn) [Example 433, (6-(6-(6-((1R)-1-amino-2-fluoropropyl)pyridin-2-yl)-4-(2-methoxyethoxy)-1H-indazol-1-yl)pyridin-2-yl)methanol], the IC50 was < 0.1 µM. With Cc1cccc(-n2ncc3ccc(-c4cc(N)cc(CN)n4)cc32)n1 [Example 231, 2-(aminomethyl)-6-(1-(6-methylpyridin-2-yl)-1H-indazol-6-yl)pyridin-4-amine] the IC50 was < 0.1 µM. For CCC[C@H](N)c1cccc(-c2cc([C@H]3CC[C@@H](C)O3)c3cnn(-c4cccc(CO)n4)c3c2)n1 [Example 478, (6-(6-(6-((S)-1-aminobutyl)pyridin-2-yl)-4-((2R,5R)-5-methyltetrahydrofuran-2-yl)-1H-indazol-1-yl)pyridin-2-yl)methanol], the IC50 was < 0.1 µM. For N#Cc1cccc(-n2ncc3ccc(-c4cncc(N)c4)cc32)n1 [Example 29, 6-(6-(5-aminopyridin-3-yl)-1H-indazol-1-yl)picolinonitrile], the IC50 was < 0.1 µM. In the case of COCCOc1cc(-c2cccc([C@H](C)N)n2)cc2c1cnn2-c1cncc(CO)n1 [Example 481, (S)-(6-(6-(6-(1-aminoethyl)pyridin-2-yl)-4-(2-methoxyethoxy)-1H-indazol-1-yl)pyrazin-2-yl)methanol], the IC50 is reported as < 0.1 µM. CNC(C)c1cccc(-c2ccc3cnn(-c4cccc(C)n4)c3c2)n1 (stereo not shown) [Example 116, N-methyl-1-(6-(1-(6-methylpyridin-2-yl)-1H-indazol-6-yl)pyridin-2-yl)ethanamine] showed an IC50 of 0.1 to 1 µM. In the case of Cc1cccc(-n2ncc3ccc(-c4cccc(C(N)CC(=O)O)n4)cc32)n1 (stereo not shown) [Example 260, 3-amino-3-(6-(1-(6-methylpyridin-2-yl)-1H-indazol-6-yl)pyridin-2-yl)propanoic acid], the IC50 is reported as 0.1 to 1 µM. For Cc1ccnc(-n2ncc3ccc(-c4cncc(N)c4)cc32)c1 [Example 39, 5-(1-(4-methylpyridin-2-yl)-1H-indazol-6-yl)pyridin-3-amine], the IC50 was 0.1 to 1 µM. With N#Cc1cccc(-n2ncc3ccc(-c4cncc(N)c4)cc32)c1 [Example 33, 3-(6-(5-aminopyridin-3-yl)-1H-indazol-1-yl)benzonitrile] the IC50 was 0.1 to 1 µM. In the case of Cc1cc(-c2cc(-c3cccc([C@@H](N)CF)n3)cc3c2cnn3-c2cccc(CO)n2)nn1C [Example 391, (R)-(6-(6-(6-(1-amino-2-fluoroethyl)pyridin-2-yl)-4-(1,5-dimethyl-1H-pyrazol-3-yl)-1H-indazol-1-yl)pyridin-2-yl)methanol], the IC50 is reported as < 0.1 µM. Cc1cccc(-n2ncc3c(C(F)(F)F)cc(-c4cccc(C(C)N)n4)cc32)n1 (stereo not shown) [Example 111, 1-(6-(1-(6-methylpyridin-2-yl)-4-(trifluoromethyl)-1H-indazol-6-yl)pyridin-2-yl)ethanamine] gave an IC50 of 0.1 to 1 µM. For Cc1cccc(-n2ncc3ccc(-c4cccc(CN)n4)cc32)n1 [Example 4, (6-(1-(6-methylpyridin-2-yl)-1H-indazol-6-yl)pyridin-2-yl)methanamine], the IC50 was 0.1 to 1 µM. In the case of NCc1cccc(-c2ccc3cnn(-c4cccc(C(F)(F)F)n4)c3c2)n1 [Example 48, (6-(1-(6-(trifluoromethyl)pyridin-2-yl)-1H-indazol-6-yl)pyridin-2-yl)methanamine], the IC50 is reported as < 0.1 µM. With N#Cc1cccc(-n2ncc3ccc(-c4cccc(CN)n4)cc32)n1 [Example 46, 6-(6-(6-(aminomethyl)pyridin-2-yl)-1H-indazol-1-yl)picolinonitrile] the IC50 was 0.1 to 1 µM. For CC(N)c1cccc(-c2ccc3cnn(-c4nccc(C(F)(F)F)n4)c3c2)n1 (stereo not shown) [Example 297, 1-(6-(1-(4-(trifluoromethyl)pyrimidin-2-yl)-1H-indazol-6-yl)pyridin-2-yl)ethanamine], the IC50 was < 0.1 µM. In the case of COCCOc1cc(-c2cccc(C3(N)CCCC3)n2)cc2c1cnn2-c1cccc(CO)n1 [Example 469, (6-(6-(6-(1-aminocyclopentyl)pyridin-2-yl)-4-(2-methoxyethoxy)-1H-indazol-1-yl)pyridin-2-yl)methanol], the IC50 is reported as < 0.1 µM. For CCOc1cc(-c2cccc([C@@H](N)CCCO)n2)cc2c1cnn2-c1cccc(CO)n1 [Example 410, (S)-4-amino-4-(6-(4-ethoxy-1-(6-(hydroxymethyl)pyridin-2-yl)-1H-indazol-6-yl)pyridin-2-yl)butan-1-ol], the IC50 was < 0.1 µM.
